Test results as given in the kinase profiling compilation of Christmann-Franck et al. (2016).

Key:
Assay in all cases: radiometric filter-binding kinase assay, Kinase HotSpot
Details in all cases: compound 0.5 µM; ATP 10 µM
ACVRL1 (human) = ACVRL1 (human) (UniProt P37023)
AKT1 (human) = AKT1 (human) (UniProt P31749)
AURKB (human) = AURKB (human) (UniProt Q96GD4)
BRSK2 (human) = BRSK2 (human) (UniProt Q8IWQ3)
CAMK2G (human) = CAMK2G (human) (UniProt Q13555)
CAMKK2 (human) = CAMKK2 (human) (UniProt Q96RR4)
CDC42BPB (human) = CDC42BPB (human) (UniProt Q9Y5S2)
CDK1 CCNA2 (human) = CDK1 CCNA2 (human) (UniProt P06493+P20248)
CDK2 CCNE1 (human) = CDK2 CCNE1 (human) (UniProt P24941+P24864)
CDK4 CCND1 (human) = CDK4 CCND1 (human) (UniProt P24385+P11802)
CDK5 CDK5R1 p35 (human) = CDK5 CDK5R1 p35 (human) (UniProt Q00535+Q15078)
CHEK1 (human) = CHEK1 (human) (UniProt O14757)
DDR2 (human) = DDR2 (human) (UniProt Q16832)
FGFR4 (human) = FGFR4 (human) (UniProt P22455)
FLT3 (human) = FLT3 (human) (UniProt P36888)
GRK6 (human) = GRK6 (human) (UniProt P43250)
GSG2 (human) = GSG2 (human) (UniProt Q8TF76)
GSK3B (human) = GSK3B (human) (UniProt P49841)
HIPK2 (human) = HIPK2 (human) (UniProt Q9H2X6)
INSR (human) = INSR (human) (UniProt P06213)
IRAK1 (human) = IRAK1 (human) (UniProt P51617)
ITK (human) = ITK (human) (UniProt Q08881)
MAP2K1 (human) = MAP2K1 (human) (UniProt Q02750)
MAP3K10 (human) = MAP3K10 (human) (UniProt Q02779)
MAP3K2 (human) = MAP3K2 (human) (UniProt Q9Y2U5)
MAP3K9 (human) = MAP3K9 (human) (UniProt P80192)
MAPK11 (human) = MAPK11 (human) (UniProt Q15759)
MAPK14 (human) = MAPK14 (human) (UniProt Q16539)
MATK (human) = MATK (human) (UniProt P42679)
NEK11 (human) = NEK11 (human) (UniProt Q8NG66)
NLK (human) = NLK (human) (UniProt Q9UBE8)
PASK (human) = PASK (human) (UniProt Q96RG2)
PIM3 (human) = PIM3 (human) (UniProt Q86V86)
PLK1 (human) = PLK1 (human) (UniProt P53350)
RPS6KA5 KD2 (human) = RPS6KA5 KD2 (human) (UniProt O75582)
SRMS (human) = SRMS (human) (UniProt Q9H3Y6)
SRPK1 (human) = SRPK1 (human) (UniProt Q96SB4)
STK39 (human) = STK39 (human) (UniProt Q9UEW8)
STK4 (human) = STK4 (human) (UniProt Q13043)
TNK2 (human) = TNK2 (human) (UniProt Q07912)
TSSK1B (human) = TSSK1B (human) (UniProt Q9BXA7)
TXK (human) = TXK (human) (UniProt P42681)

Sequence of ITK (human) (Q08881 whole entry, looked up): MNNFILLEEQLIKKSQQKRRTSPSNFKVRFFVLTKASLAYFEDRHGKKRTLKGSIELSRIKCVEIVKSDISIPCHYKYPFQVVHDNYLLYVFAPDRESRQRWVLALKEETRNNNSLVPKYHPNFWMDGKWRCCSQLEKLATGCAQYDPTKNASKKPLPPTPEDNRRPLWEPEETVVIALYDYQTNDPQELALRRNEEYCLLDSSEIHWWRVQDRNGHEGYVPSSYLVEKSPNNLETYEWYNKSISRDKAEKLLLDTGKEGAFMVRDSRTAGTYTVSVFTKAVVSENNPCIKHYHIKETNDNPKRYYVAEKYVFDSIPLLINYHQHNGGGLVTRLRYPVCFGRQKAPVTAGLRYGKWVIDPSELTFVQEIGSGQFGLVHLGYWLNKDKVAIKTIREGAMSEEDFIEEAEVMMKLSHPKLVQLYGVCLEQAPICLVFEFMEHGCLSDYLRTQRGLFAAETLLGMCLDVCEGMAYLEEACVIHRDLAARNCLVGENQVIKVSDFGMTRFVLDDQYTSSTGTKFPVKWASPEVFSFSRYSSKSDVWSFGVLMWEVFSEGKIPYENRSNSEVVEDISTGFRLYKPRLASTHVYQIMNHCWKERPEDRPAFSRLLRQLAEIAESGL
Sequence of CDK1 CCNA2 (human) (P06493 whole entry, looked up): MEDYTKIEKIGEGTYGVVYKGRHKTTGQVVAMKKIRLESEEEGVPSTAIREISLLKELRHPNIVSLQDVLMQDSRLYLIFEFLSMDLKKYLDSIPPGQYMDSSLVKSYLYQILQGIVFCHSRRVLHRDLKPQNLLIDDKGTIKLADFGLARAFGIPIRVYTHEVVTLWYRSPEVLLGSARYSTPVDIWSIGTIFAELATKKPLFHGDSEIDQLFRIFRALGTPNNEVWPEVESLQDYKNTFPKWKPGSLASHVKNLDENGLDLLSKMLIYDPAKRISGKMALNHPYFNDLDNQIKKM
Sequence of CDK1 CCNA2 (human) (P20248 whole entry, looked up): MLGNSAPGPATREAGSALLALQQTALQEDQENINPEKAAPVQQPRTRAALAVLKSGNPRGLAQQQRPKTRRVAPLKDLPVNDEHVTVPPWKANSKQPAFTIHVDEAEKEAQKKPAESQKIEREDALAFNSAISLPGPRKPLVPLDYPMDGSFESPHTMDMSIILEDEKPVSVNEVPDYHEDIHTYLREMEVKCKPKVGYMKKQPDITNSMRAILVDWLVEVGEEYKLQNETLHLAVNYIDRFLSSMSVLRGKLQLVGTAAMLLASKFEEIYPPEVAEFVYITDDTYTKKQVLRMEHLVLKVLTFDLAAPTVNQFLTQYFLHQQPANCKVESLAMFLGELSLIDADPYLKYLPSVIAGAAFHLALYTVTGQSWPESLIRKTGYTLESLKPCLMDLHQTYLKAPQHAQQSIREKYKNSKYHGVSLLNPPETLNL
Sequence of ACVRL1 (human) (P37023 whole entry, looked up): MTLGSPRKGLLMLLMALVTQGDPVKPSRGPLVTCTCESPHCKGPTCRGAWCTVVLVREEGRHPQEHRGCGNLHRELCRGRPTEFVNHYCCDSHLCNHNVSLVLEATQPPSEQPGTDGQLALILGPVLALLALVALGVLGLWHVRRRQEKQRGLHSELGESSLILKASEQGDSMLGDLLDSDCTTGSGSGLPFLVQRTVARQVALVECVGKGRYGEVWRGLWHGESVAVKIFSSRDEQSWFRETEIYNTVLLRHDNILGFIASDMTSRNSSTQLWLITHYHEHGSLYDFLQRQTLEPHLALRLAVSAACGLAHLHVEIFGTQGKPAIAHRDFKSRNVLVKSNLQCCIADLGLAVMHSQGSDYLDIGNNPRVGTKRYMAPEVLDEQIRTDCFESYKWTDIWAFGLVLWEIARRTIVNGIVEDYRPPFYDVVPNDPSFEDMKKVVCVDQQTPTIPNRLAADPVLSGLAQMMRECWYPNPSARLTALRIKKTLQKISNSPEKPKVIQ
Sequence of IRAK1 (human) (P51617 whole entry, looked up): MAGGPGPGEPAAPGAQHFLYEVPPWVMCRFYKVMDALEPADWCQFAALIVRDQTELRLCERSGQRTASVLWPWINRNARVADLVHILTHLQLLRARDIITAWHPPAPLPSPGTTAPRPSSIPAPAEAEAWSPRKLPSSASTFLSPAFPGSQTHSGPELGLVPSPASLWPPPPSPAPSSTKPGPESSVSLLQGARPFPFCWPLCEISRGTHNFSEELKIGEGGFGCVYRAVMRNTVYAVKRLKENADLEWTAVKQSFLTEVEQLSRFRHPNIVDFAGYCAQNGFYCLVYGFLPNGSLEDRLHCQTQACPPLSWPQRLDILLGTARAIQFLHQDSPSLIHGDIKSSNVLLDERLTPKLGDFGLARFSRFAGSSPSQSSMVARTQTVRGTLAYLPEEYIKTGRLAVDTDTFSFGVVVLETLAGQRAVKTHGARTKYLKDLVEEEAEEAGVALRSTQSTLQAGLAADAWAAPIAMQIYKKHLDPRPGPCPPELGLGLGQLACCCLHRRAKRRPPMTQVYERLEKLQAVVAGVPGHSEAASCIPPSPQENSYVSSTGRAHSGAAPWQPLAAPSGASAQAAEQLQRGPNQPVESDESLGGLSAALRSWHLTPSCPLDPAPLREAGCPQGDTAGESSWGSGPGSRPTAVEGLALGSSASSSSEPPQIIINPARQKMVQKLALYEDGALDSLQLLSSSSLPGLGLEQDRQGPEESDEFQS
Sequence of TNK2 (human) (Q07912 whole entry, looked up): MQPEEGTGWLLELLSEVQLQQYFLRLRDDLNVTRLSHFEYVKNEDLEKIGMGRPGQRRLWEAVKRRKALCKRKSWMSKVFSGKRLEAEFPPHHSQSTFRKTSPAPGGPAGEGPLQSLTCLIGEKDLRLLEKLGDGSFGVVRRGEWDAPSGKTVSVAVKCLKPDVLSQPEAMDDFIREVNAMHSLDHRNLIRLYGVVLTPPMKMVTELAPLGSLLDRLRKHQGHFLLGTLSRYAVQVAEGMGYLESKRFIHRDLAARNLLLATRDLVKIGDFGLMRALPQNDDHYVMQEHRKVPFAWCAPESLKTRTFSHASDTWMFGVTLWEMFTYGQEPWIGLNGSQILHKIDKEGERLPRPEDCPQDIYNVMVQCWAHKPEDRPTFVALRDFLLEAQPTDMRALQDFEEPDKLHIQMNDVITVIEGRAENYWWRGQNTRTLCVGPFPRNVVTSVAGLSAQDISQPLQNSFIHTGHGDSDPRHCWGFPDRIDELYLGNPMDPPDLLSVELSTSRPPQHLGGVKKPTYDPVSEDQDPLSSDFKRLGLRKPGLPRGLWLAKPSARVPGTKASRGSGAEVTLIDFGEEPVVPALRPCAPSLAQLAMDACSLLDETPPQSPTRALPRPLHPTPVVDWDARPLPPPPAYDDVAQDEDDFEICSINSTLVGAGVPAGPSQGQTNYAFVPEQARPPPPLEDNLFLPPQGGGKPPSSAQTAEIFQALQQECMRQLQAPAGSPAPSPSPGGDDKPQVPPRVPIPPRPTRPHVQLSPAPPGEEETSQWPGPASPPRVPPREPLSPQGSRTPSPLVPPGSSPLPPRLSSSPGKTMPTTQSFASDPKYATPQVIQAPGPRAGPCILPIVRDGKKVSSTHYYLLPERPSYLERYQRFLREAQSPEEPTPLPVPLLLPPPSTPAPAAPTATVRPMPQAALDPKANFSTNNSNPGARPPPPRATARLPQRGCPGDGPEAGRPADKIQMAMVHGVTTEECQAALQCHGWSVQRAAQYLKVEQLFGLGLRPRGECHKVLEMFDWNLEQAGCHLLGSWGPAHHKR
Sequence of SRMS (human) (Q9H3Y6 whole entry, looked up): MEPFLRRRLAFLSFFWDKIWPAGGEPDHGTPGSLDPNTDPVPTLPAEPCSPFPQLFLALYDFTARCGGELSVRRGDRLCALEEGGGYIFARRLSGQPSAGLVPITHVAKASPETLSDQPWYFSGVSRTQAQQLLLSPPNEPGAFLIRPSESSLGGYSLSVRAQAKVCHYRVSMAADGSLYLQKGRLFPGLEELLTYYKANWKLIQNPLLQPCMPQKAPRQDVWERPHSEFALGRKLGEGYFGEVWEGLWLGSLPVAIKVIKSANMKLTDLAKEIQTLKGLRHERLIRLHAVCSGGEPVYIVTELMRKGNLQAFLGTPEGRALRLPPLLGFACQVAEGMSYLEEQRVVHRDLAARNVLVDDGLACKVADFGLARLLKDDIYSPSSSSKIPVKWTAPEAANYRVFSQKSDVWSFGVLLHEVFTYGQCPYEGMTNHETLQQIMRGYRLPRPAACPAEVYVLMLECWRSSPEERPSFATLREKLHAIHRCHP
Sequence of STK4 (human) (Q13043 whole entry, looked up): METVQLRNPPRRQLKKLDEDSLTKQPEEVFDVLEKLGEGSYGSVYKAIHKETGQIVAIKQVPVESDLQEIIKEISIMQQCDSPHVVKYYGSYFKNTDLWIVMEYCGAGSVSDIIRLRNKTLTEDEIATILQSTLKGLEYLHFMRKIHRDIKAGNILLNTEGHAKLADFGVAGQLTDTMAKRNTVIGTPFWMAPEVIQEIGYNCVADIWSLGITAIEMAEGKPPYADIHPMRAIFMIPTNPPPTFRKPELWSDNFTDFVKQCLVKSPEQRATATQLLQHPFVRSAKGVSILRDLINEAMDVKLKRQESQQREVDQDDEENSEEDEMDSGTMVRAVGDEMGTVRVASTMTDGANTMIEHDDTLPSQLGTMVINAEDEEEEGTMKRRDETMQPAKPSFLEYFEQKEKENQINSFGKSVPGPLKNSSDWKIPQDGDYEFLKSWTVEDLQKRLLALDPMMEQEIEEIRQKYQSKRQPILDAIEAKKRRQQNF

SMILES: COc1cc2nccc(Oc3ccc(NC(=S)NC(=O)c4ccccc4C)cc3)c2cc1OC
- residual activity (ACVRL1 (human)): 91.7%
- residual activity (AKT1 (human)): 95.7%
- residual activity (AURKB (human)): 4.31%
- residual activity (BRSK2 (human)): 93%
- residual activity (CAMK2G (human)): 103%
- residual activity (CAMKK2 (human)): 75%
- residual activity (CDC42BPB (human)): 90.5%
- residual activity (CDK1 CCNA2 (human)): 91.6%
- residual activity (CDK2 CCNE1 (human)): 96.7%
- residual activity (CDK4 CCND1 (human)): 95.1%
- residual activity (CDK5 CDK5R1 p35 (human)): 100%
- residual activity (CHEK1 (human)): 95.1%
- residual activity (DDR2 (human)): 54.1%
- residual activity (FGFR4 (human)): 92.9%
- residual activity (FLT3 (human)): 46.6%
- residual activity (GRK6 (human)): 91%
- residual activity (GSG2 (human)): 95.9%
- residual activity (GSK3B (human)): 97.7%
- residual activity (HIPK2 (human)): 99.2%
- residual activity (INSR (human)): 100%
- residual activity (IRAK1 (human)): 99.6%
- residual activity (ITK (human)): 80.6%
- residual activity (MAP2K1 (human)): 88.3%
- residual activity (MAP3K10 (human)): 91%
- residual activity (MAP3K2 (human)): 83.1%
- residual activity (MAP3K9 (human)): 99.3%
- residual activity (MAPK11 (human)): 89.3%
- residual activity (MAPK14 (human)): 80.2%
- residual activity (MATK (human)): 93%
- residual activity (NEK11 (human)): 96.7%
- residual activity (NLK (human)): 100%
- residual activity (PASK (human)): 93.6%
- residual activity (PIM3 (human)): 98.2%
- residual activity (PLK1 (human)): 97.9%
- residual activity (RPS6KA5 KD2 (human)): 95.3%
- residual activity (SRMS (human)): 111%
- residual activity (SRPK1 (human)): 98%
- residual activity (STK39 (human)): 91.5%
- residual activity (STK4 (human)): 95.6%
- residual activity (TNK2 (human)): 26.9%
- residual activity (TSSK1B (human)): 83.6%
- residual activity (TXK (human)): 66.9%

SMILES: Clc1ccc(Nc2nnc(Cc3ccncc3)c3ccccc23)cc1
- residual activity (ACVRL1 (human)): 98.5%
- residual activity (AKT1 (human)): 103%
- residual activity (AURKB (human)): 90%
- residual activity (BRSK2 (human)): 97.1%
- residual activity (CAMK2G (human)): 115%
- residual activity (CAMKK2 (human)): 100%
- residual activity (CDC42BPB (human)): 99.5%
- residual activity (CDK1 CCNA2 (human)): 105%
- residual activity (CDK2 CCNE1 (human)): 94.5%
- residual activity (CDK4 CCND1 (human)): 96.6%
- residual activity (CDK5 CDK5R1 p35 (human)): 97.2%
- residual activity (CHEK1 (human)): 96.5%
- residual activity (DDR2 (human)): 97.1%
- residual activity (FGFR4 (human)): 95.8%
- residual activity (FLT3 (human)): 92%
- residual activity (GRK6 (human)): 99.9%
- residual activity (GSG2 (human)): 70%
- residual activity (GSK3B (human)): 104%
- residual activity (HIPK2 (human)): 101%
- residual activity (INSR (human)): 99.9%
- residual activity (IRAK1 (human)): 94.1%
- residual activity (ITK (human)): 103%
- residual activity (MAP2K1 (human)): 100%
- residual activity (MAP3K10 (human)): 110%
- residual activity (MAP3K2 (human)): 126%
- residual activity (MAP3K9 (human)): 113%
- residual activity (MAPK11 (human)): 96.9%
- residual activity (MAPK14 (human)): 98.2%
- residual activity (MATK (human)): 78.1%
- residual activity (NEK11 (human)): 87%
- residual activity (NLK (human)): 99.3%
- residual activity (PASK (human)): 101%
- residual activity (PIM3 (human)): 98.9%
- residual activity (PLK1 (human)): 95.9%
- residual activity (RPS6KA5 KD2 (human)): 85.5%
- residual activity (SRMS (human)): 91.8%
- residual activity (SRPK1 (human)): 98.5%
- residual activity (STK39 (human)): 92.6%
- residual activity (STK4 (human)): 105%
- residual activity (TNK2 (human)): 91.7%
- residual activity (TSSK1B (human)): 94.8%
- residual activity (TXK (human)): 110%

SMILES: COc1ccc(-c2cnc3c(-c4ccsc4)cnn3c2)cc1
- residual activity (ACVRL1 (human)): 76.4%
- residual activity (AKT1 (human)): 92.4%
- residual activity (AURKB (human)): 50.8%
- residual activity (BRSK2 (human)): 94.1%
- residual activity (CAMK2G (human)): 93.7%
- residual activity (CAMKK2 (human)): 72.9%
- residual activity (CDC42BPB (human)): 83.4%
- residual activity (CDK1 CCNA2 (human)): 87.4%
- residual activity (CDK2 CCNE1 (human)): 82.8%
- residual activity (CDK4 CCND1 (human)): 69.8%
- residual activity (CDK5 CDK5R1 p35 (human)): 64.5%
- residual activity (CHEK1 (human)): 90.8%
- residual activity (DDR2 (human)): 98.2%
- residual activity (FGFR4 (human)): 89.2%
- residual activity (FLT3 (human)): 11.1%
- residual activity (GRK6 (human)): 99.9%
- residual activity (GSG2 (human)): 77.2%
- residual activity (GSK3B (human)): 99.4%
- residual activity (HIPK2 (human)): 91.2%
- residual activity (INSR (human)): 92.5%
- residual activity (IRAK1 (human)): 94%
- residual activity (ITK (human)): 95.2%
- residual activity (MAP2K1 (human)): 98.2%
- residual activity (MAP3K10 (human)): 94.2%
- residual activity (MAP3K2 (human)): 98.7%
- residual activity (MAP3K9 (human)): 65.6%
- residual activity (MAPK11 (human)): 84.1%
- residual activity (MAPK14 (human)): 120%
- residual activity (MATK (human)): 99.4%
- residual activity (NEK11 (human)): 93.3%
- residual activity (NLK (human)): 74.5%
- residual activity (PASK (human)): 79.5%
- residual activity (PIM3 (human)): 100%
- residual activity (PLK1 (human)): 101%
- residual activity (RPS6KA5 KD2 (human)): 90.3%
- residual activity (SRMS (human)): 97.4%
- residual activity (SRPK1 (human)): 101%
- residual activity (STK39 (human)): 95.1%
- residual activity (STK4 (human)): 97.3%
- residual activity (TNK2 (human)): 92.2%
- residual activity (TSSK1B (human)): 99.1%
- residual activity (TXK (human)): 85.2%

SMILES: O=C1Cc2c([nH]c3ccc([N+](=O)[O-])cc23)-c2ccccc2N1
- residual activity (ACVRL1 (human)): 76.2%
- residual activity (AKT1 (human)): 107%
- residual activity (AURKB (human)): 85.9%
- residual activity (BRSK2 (human)): 34.5%
- residual activity (CAMK2G (human)): 94.5%
- residual activity (CAMKK2 (human)): 79.5%
- residual activity (CDC42BPB (human)): 83.3%
- residual activity (CDK1 CCNA2 (human)): 54.5%
- residual activity (CDK2 CCNE1 (human)): 19.6%
- residual activity (CDK5 CDK5R1 p35 (human)): 7.98%
- residual activity (CHEK1 (human)): 37.5%
- residual activity (DDR2 (human)): 103%
- residual activity (FGFR4 (human)): 90.6%
- residual activity (FLT3 (human)): 19.7%
- residual activity (GRK6 (human)): 93.8%
- residual activity (GSG2 (human)): 106%
- residual activity (GSK3B (human)): 2.68%
- residual activity (HIPK2 (human)): 110%
- residual activity (INSR (human)): 101%
- residual activity (IRAK1 (human)): 93.1%
- residual activity (ITK (human)): 97.1%
- residual activity (MAP2K1 (human)): 92.6%
- residual activity (MAP3K10 (human)): 48.6%
- residual activity (MAP3K2 (human)): 78%
- residual activity (MAP3K9 (human)): 10.5%
- residual activity (MAPK11 (human)): 102%
- residual activity (MAPK14 (human)): 92.1%
- residual activity (MATK (human)): 98.9%
- residual activity (NEK11 (human)): 95.4%
- residual activity (NLK (human)): 95.5%
- residual activity (PASK (human)): 86.9%
- residual activity (PIM3 (human)): 62.3%
- residual activity (PLK1 (human)): 98%
- residual activity (RPS6KA5 KD2 (human)): 107%
- residual activity (SRMS (human)): 92.9%
- residual activity (SRPK1 (human)): 100%
- residual activity (STK39 (human)): 77.5%
- residual activity (STK4 (human)): 52.3%
- residual activity (TNK2 (human)): 74.9%
- residual activity (TSSK1B (human)): 74.7%
- residual activity (TXK (human)): 87.3%
